In article PMC5007476, “Use of cross-reactivity immunoassay to orient insulin replacement in diabetic patients with high levels of insulin antibodies” (MethodsX, 2016):
Like-named read-outs stand apart in the source and are kept apart here.

What was measured:
[1] = Metabolic control of the patient (glycaemia, HbA1c) under insulin treatment; format: in vivo, human
[2] = effect of the sequence modification; background, no reference given; cited from earlier work
Text: (§1) Lispro was engineered through recombinant DNA technology so that the penultimate lysine and proline residues on the C-terminal end of the B-chain were reversed. […] This allowed larger amounts of active monomeric insulin to be available for postprandial (after meal) injections. Similar to Glulisine, the monomeric state of Lispro theoretically may diminish the chance of phagocytosis by cells of the Immune System resulting in lower immunogenicity.

insulin receptor = conditions: effect of the sequence modification; background, no reference given; cited from earlier work
Text: as §1

[3] = test system: insulin antibodies (IA) in patient serum; assay: Displacement radioimmunoassay (RIA) for affinity and cross-reactivity of insulin antibodies in patient serum; format: binding, human; conditions: for K0, average (median) affinity constant: at start of study (before change of insulin), patient serum 30 μL, duplicates, 5 days at 4 °C (near equilibrium), tracer mono [^125I A14] insulin ~20,000 cpm (5.8 × 10^−11 M), competitor 1 × 10^−9 to 10^−6 M; for Selectivity (S = KL/KCi): at start of study, KL = K0 of regular human insulin, KCi = K0 of the competitor analog
Method: The homogeneous mono [^125I A14]
For in vitro cross-reactivity assessment a displacement RIA was applied by using the tracer described above. Briefly, duplicate 30 μL serum samples from the patient were incubated during 5 days at 4 °C (near equilibrium) with a constant amount of tracer (∼20,000 cpm). […] Insulin analogs were engineered to enhance desired molecular properties without altering immunogenicity, at least in theory. However, since the amino acid sequence of these insulin variants were changed to alter its absorption, distribution, metabolism and excretion characteristics, some residual capacity to elicit specific antibodies must be expected. […] Also the grade of alteration of the natural insulin molecule is of importance.
In order to express the degree of cross reactivity of IA induced by the initial insulin formulation (¨Ligand̈, L), against a panel of slow or fast action insulin analogs as described above (Competitors̈, Ci), the parameter selectivity (S), as defined elsewhere (Berzofsky and Schechter; Berzofsky et al.), was employed. Approximate values for average (median) affinity (K0) for L and those from each Ci, were obtained from the plots of B/F signals as a function of each competitor concentration, interpolating in the abscissa axis the respective doses corresponding to the maximum/2 signal [(B/F)0/2] (Graphical abstract, RIA plot). Alternatively, a best fit to the true affinity constants was obtained by representing B/F signals for each ligand as a function of free tracer (F) calculated by the formula: F = [C/(1 + B/F)]. It is important to emphasize that the molar concentration of the tracer in the test must be lower than the inverse of K0 value. This condition precludes the preparation of the respective labeled competitors to perform specific single RIAs for each homologous ligand. (Berzofsky and Schechter). In the RIA the concentration of tracer was 5.8 × 10^−11 M (see Preparation of the homogeneous tracer mono [^125I A14] Insulin) and K0 values for IA (ranging 10^6–10^8 M^−1) were obtained from previous work of our laboratory (Trabucchi et al.; Trabucchi et al.).
Finally, the respective Selectivity ratios were obtained using the expression: Si = KL/KCi.

[4] = test system: anti-insulin antibodies (IA)
Method: Insulin used as a tracer for both radiometric methods, RBA and RIA, was produced using recombinant human insulin (HumulinC from Eli Lilly, Indiana, USA) devoid of preservative substances by chromatography on a Sephadex G25 column (Amersham Biosciences, New Jersey, USA). The labeling and HPLC purification steps were carried out following as indicated by Linde et al. [3] and Jørgensen et al. [4], respectively. Specific radioactivity of roughly 300–380 μCi/μg was routinely achieved.
The concentration of tracer in both, RBA and RIA, was 5.8 × 10^−11, calculated from an activity of 20,000 cpm; Relative mass of insulin, 5808 Da; Final incubation volume, 0,12 mL; Gamma counter efficiency, 70%; Specific activity of fresh insulin tracer, 380 μCi/μg.
Radioligand binding assay for IA assessment, performed routinely as official analysis service at IDEHU-CONICET laboratory, was based on the original procedure indicated by Kurtz et al. [5] and carried out essentially as previously described by Stumpo et al. [6]. […] Results were expressed as specific insulin binding percentage B% = Bwi% (preincubated without cold insulin) – Bie% (preincubated with excess cold insulin). Reproducibility was assessed at different binding levels. […]

[5] = cited from earlier work
Text: Detemir is an insulin analog in which a fatty acid (myristic acid) is bound to the lysine amino acid at position B29. […] Accordingly, its persistence as a potential antigen in circulation must not be ruled out. Glargine was created by modifying three amino acids. […] In order to avoid ... || Glulisine is a rapid-acting insulin analog that differs from human insulin in that the amino acid asparagine at position B3 is replaced by lysine and the lysine in position B29 is replaced by glutamic acid.

serum albumin = conditions: background, no reference given; cited from earlier work
Text: (§2) Detemir is an insulin analog in which a fatty acid (myristic acid) is bound to the lysine amino acid at position B29. […] Accordingly, its persistence as a potential antigen in circulation must not be ruled out. Glargine was created by modifying three amino acids. […] In order to avoid ...

[6] = background, no reference given, cited from earlier work
Text: as §2

[7] = before change, more than 3 IU/kg/day NPH human insulin complemented with crystalline human insulin
[8] = after 6 months of Glulisine 0,6 IU/Kg/day by pump infusion

Substance: NPH human insulin: NPH human insulin (Humulin – Eli Lilly) complemented with crystalline human insulin
- HbA1C [1, 7]: 11%
- HbA1C (IFCC) [1, 7]: 97 mmol/mol
- metabolic control (in words) ([1]; before change, more than 3 IU/kg/day NPH human insulin complemented with crystalline human insulin, last two years): inadequate metabolic control

Substance: Lispro
- formation of insulin dimers and hexamers (in words) [2]: blocked the formation of insulin dimers and hexamers
- insulin receptor binding (in words) (insulin receptor): did not alter the insulin receptor binding
- K0, average (median) affinity constant [3]: 1.96e+07 M⁻¹
- Selectivity (S = KL/KCi) [3]: 40.3
- K0, affinity constant ([3]; control RIA on serum sample after 14 months (of Glulisine treatment)): 3.4e+07 M⁻¹

Substance: Glulisine
- K0, average (median) affinity constant [3]: 1e+06 M⁻¹
- Selectivity (S = KL/KCi) [3]: 790
- IA binding rate compared with regular human insulin ([3]; in vitro, at the same doses, start of study): 1/790
- change of B% signal (in words) [4]: significant decrease in B% signal
- HbA1c [1, 8]: 7.6%
- HbA1c (IFCC) [1, 8]: 60 mmol/mol
- metabolic control (in words) [1, 8]: recovered metabolic control
- duration/onset of action (in words) ([5]; background, no reference given): rapid-acting

Substance: Detemir
- Selectivity (S = KL/KCi) [3]: ~1
- duration/onset of action (in words) [5]: increasing its duration of action
- affinity for serum albumin (in words) (serum albumin): high affinity for serum albumin

Substance: regular human insulin: unlabeled regular crystalline human insulin (Humulin, Eli Lilly)
- K0, average (median) affinity constant [3]: 7.9e+08 M⁻¹

Substance: Glargine
- K0, average (median) affinity constant [3]: 2.1e+07 M⁻¹
- Selectivity (S = KL/KCi) [3]: 37.6
- duration/onset of action (in words) ([5]; background, no reference given): prolonged action when compared with biosynthetic human insulin
- solubility at physiological pH (in words) ([6]; physiological pH): less soluble at a physiological pH
- isoelectric point ([6]; shifted from 5.4 by two added arginine residues): 6.7
- solubility at slightly acidic pH (in words) ([6]; slightly acidic pH): more soluble at a slightly acidic pH
